Columns and labels:
Type in all cases: cell-based
[1] = system: c-Src phosphorylation in LP1 and JJN3 cells; test: c-Src phosphorylation, immunoblotting; conditions: increasing concentrations, 24 hrs
Procedure: (§1) To elucidate this specificity, we first evaluated its effects on IGF-1R because IGF-1R as a receptor tyrosine kinase activates PI3K in the presence of IGF-1. To exclude the potential effects of C96 on IGF-1 signaling, LP1 and JJN3 cells were starved overnight followed by C96 or S14161 treatment for 2 hrs, and IGF-1 stimulation for 15 min. As expected, IGF-1 triggered AKT phosphorylation but it was suppressed by both C96 and the proven PI3K inhibitor S14161 without affecting total AKT expression (Figure 3A). […] Next, we evaluated other kinases including non-receptor kinase c-Src and a PI3K parallel kinase ERK which transduces external cellular signals. Both LP1 and JJN3 cells were treated with C96 at increasing concentrations that inhibited AKT and mTOR activation (Figure 2C).
(§2) Figure 3 C96 inhibits AKT but not IGF-1R, ERK or c-Src kinase activation (A) LP1 and JJN3 cells were starved overnight, then treated with 100 (μM of C96 or S14161 for 2 hrs, followed by IGF-1 (100 ng/mL) for 15 min. After incubation, cells were harvested and the expression of p-AKT, p-IGF-1R, total AKT (T-AKT), and IGF-1R proteins were detected by immunoblotting. (B) LP1 and JJN3 were treated with C96 at indicated concentrations for 24 hrs followed by immunoblotting assay for the expression of p-Src, c-Src, p-ERK, and ERK. GAPDH was used as a loading control. […]

[2] = system: AKT phosphorylation in OPM2 cells; test: IGF-1-stimulated AKT phosphorylation, immunoblotting; conditions: OPM2 cells (no PTEN), 2 hrs, IGF-1 15 min
Procedure: (§3) MM cell lines LP1 and OPM2 were starved overnight before being treated with C96 (0–100 μM) or S14161 (100 μM, a positive control) for a short period (2 hrs), followed by IGF-1 stimulation for 15 min. […] (Figure 2A). In LP1 cells, C96 at 25 μM and 50 μM led to a 50% and 90% decrease in AKT phosphorylation, respectively, in the 2-hr treatment. […] In the time-course study, AKT activation was suppressed by C96 at 50 μM within 0.5 hrs (30 min) (Figure 2B).
(§4) Figure 2 C96 inhibits AKT and mTOR signaling (A) LP1 and OPM2 were starved overnight, then treated with C96 at the indicated concentrations, or 100 μM of S14161 for 2 hrs, followed by IGF-1 (100 ng/mL) for 15 min. Cells were collected for the analysis of the expression of p-AKT and total AKT (T-AKT) by immunoblotting. (B) LP1 and OPM2 cells were starved overnight, then treated with C96 (50 μM) for different time periods, or S14161 (100 (μM) for 2 hrs, followed by IGF-1 (100 ng/mL) for 15 min. Cells were for the analysis of the expression of p-AKT and T-AKT by immunoblotting. (C) LP1, OPM2, and JJN3 cells were treated with C96 at the indicated concentrations for 24 hrs. Cell lysates were prepared and subjected to immunoblotting assay against p-AKT, AKT, p-mTOR, mTOR, p-4E-BP1, and 4E-BP1. GAPDH was used as a loading control.
(§5) Cells were treated with or without C96 for 24 hrs before being applied to lysate preparation in a lysis buffer (50 mM Tris-HCI, pH 7.4, 1% NP-40, 0.5% Na-deoxycholate, and 0.1% SDS, 150 mM NaCl, 2 mM EDTA, 2 mM Na3VO4, and 5 mM NaF). Equal amounts (30 μg) of total proteins were subjected to sodium dodecyl sulfate–polyacrylamide gel electrophoresis (SDS-PAGE) separation, followed by immunoblotting analyses with specific antibodies. Antibodies against PARP, caspase-3, AKT, p-AKT(S473), 4E-BP1, p-4E-BP1(S65), IGF-1R, p-IGF-1R, ERK(p42/p44), and p-ERK(p42/p44) were purchased from Cell Signaling Technologies. Antibodies against mTOR, p-mTOR(S2448), p70S6K, p-p70S6K(S424), and GAPDH were obtained from Abgent (Suzhou, China). Horseradish peroxidase-conjugate secondary antibodies against mouse or rabbit and GAPDH were purchased from Abgent. All immunoblotting signals were further analyzed with Quality One Quality One software (Bio-Rad, Berkeley, CA, USA).

[3] = system: AKT phosphorylation in LP1 cells; test: as above; conditions: for decrease in AKT phosphorylation: LP1 cells, 2-hr treatment, IGF-1 15 min
Procedure: as §3, §4, §5

[4] = system: IGF-1R phosphorylation in LP1 and JJN3 cells; test: IGF-1-induced IGF-1R phosphorylation, immunoblotting; conditions: 100 μM, 2 hrs, IGF-1 15 min
Procedure: as §1, §2

LP1, OPM2 and JJN3 cells = test: MM cell growth after starvation/IGF-1 stimulation (MTT); conditions: 0.5% FBS 12 hrs, IGF-1 100 ng/mL, 24 hrs
From the text: Next, we evaluated the effects of C96 on MM cell growth by measuring viable cells after starvation/IGF-1 stimulation in the presence of C96. As shown in Supplemental Figure 2A, IGF-1 stimulated MM cell growth, but it was suppressed by C96. We also examined the effects of C96 on MM cell migration upon IGF-1 stimulation.
MM cells were dispensed in 96-well plates at a density of 8×10^3 cells per well and treated with increasing concentrations of C96 for 72 hrs, and the growth inhibitory effect of C96 on MM cells was assessed by an MTT assay as reported previously. To show the effect of C96 on cell growth in the presence of growth factor IGF-1, MM cells were first maintained in IMDM media containing 0.5% FBS for 12 hrs, followed by C96 treatment alone or in combination with 100 ng/mL of IGF-1. Cells were then incubated for another 24 hrs, relative cell proliferation was analyzed by an MTT assay.
Supplementary Figure S2: C96 inhibits MM cell proliferation and migration in the presence of IGF-1. […] Cells were then incubated for another 24 hr, cell number was analyzed using MTT staining. […] Cells were loaded onto the upper chamber of a transwell, and the lower chamber was filled with IMDM containing agonist IGF-1.After 6 hrs, cells migrating into the lower chamber were counted using a hemacytometer. […]

## O=C1NC(=O)C(=CC=Cc2cccs2)C(=O)N1 [C96, 5-(3-(2-thienyl)-2-propen-1-ylidene)-2,4,6(1H,3H,5H)-pyrimidinetrione]
[1]
  phosphorylation level of c-Src: did not decrease
[2]
  AKT phosphorylation: markedly decreased
[3]; 50 μM, time-course study, LP1 and OPM2 (Figure 2B)
  time within which AKT activation was suppressed: ≤ 0.5 h
[3]; 25 μM
  decrease in AKT phosphorylation: 50%
[3]; 50 μM
  decrease in AKT phosphorylation: 90%
[4]
  IGF-1R phosphorylation induced by IGF-1: not affected
LP1, OPM2 and JJN3 cells
  IGF-1 stimulated MM cell growth: suppressed

— publication PMC4116524, “A virtual screen identified C96 as a novel inhibitor of phosphatidylinositol 3-kinase that displays potent preclinical activity against multiple myeloma in vitro and in vivo” (Oncotarget, 2014)
